Structures are written as SMILES. Like-named read-outs stand apart in the source and are kept apart here.

For test [1], the target named is T1, human tissue nonspecific alkaline phosphatase (h-TNAP) (Homo sapiens, UniProt P05186).
T1 sequence (P05186 18-524): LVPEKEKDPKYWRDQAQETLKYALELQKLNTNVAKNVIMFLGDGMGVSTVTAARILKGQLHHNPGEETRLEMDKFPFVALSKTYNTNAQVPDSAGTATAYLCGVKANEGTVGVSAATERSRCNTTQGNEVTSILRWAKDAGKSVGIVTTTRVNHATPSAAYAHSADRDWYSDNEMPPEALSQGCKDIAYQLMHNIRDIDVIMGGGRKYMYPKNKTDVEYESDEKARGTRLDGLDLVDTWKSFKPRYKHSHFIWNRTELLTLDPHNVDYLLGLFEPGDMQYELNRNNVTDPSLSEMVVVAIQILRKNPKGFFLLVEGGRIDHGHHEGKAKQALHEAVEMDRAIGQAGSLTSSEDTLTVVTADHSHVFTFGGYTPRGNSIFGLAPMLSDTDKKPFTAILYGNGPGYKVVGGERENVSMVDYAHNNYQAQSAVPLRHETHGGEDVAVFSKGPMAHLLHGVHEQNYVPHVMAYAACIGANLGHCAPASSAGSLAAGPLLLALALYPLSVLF
The experiment in a line: Alkaline phosphatase inhibition assay (p-NPP substrate). It is filed as biochemical. How it is done:
The newly synthesized compounds were tested against human tissue nonspecific alkaline phosphatase (h-TNAP). The compounds were initially tested against the h-TNAP enzymes at 1 mM concentration. The assay buffer (pH 9.5) constituted of 50% glycerol, followed by tris-hydrochloride (50.0 mM), MgCl2 (5.0 mM), and ZnCl2 (0.1 mM) in the solution. The enzyme substrate p-nitrophenyl phosphate (p-NPP) and all the required test compounds were diluted to the required concentration by a dilution buffer method. In a 96-well plate, the assay was started by adding 70 µL of assay buffer followed by 10.0 µL of the test compound (from 1 mM), 10.0 µL of the enzyme (0.5 µL/mL) and then subsequently incubating at 37 °C for 10 min. The reaction was initiated with the addition of 10.0 µL of substrate (5.0 mM p-NPP) into each well and incubated for an additional 30 min.
Percent inhibition was calculated by the formula:% Inhibition = [100 − (abs of test comp/abs of control) × 100]

The subject of the next test is HeLa cells. The experiment in a line: Fluorescence microscopy of cytotoxic and pro-apoptotic effect (PI and DAPI staining). It counts as cell-based. An excerpt:
Change in the cellular morphology, initially characterized by cell shrinkage, chromatin condensation, and degradation of the nuclear and plasma membranes, was mostly observed in the programmed cell death. The propidium iodide (PI) staining agent is a fluorescent molecule that penetrates the cancerous cells through ruptured membranes and binds with DNA. Similarly, the subsequent image offers red nuclei contrary to the dark background that indicates the counts of dead cells. On the other hand, viable cells have an intact cell membrane that resists the penetration of the staining agent (PI). Herein, the anticancer potential of the highly functionalized small dihydropyridine scaffold 4d was noticed through the apoptosis induction pathway based on various mechanisms. […] The detachment of cells and appearance of yellow intense fluorescence images on the dark background specify the distribution of PI into the dying cells in a dose-reliant mode.
The apoptotic feature, particularly the condensation of nuclear material, was also observed through the fluorescence microscopic evaluation of compound 4d-treated HeLa cells using 4′,6-diamidino-2-phenylindole (DAPI) as a staining agent. […] The fluorescence intensity enhances many folds upon binding with DNA. The extent of damage in the compound-treated cells was easily measured through an increase in the fluorescence emission intensity. […]

Take `N#CC1=C(N)N(Cc2ccccc2)C(N)=C(C#N)C1c1ccc2ccccc2c1` [Compound 4d, 2,6-Diamino-1-benzyl-4-(naphthalen-2-yl)-1,4-dihydropyridine-3,5-dicarbonitrile]: the IC50 in test [1] (Table 2, unit given in Table 1, read-out: Alkaline Phosphatase (h-TNAP) IC50) was determined as 1.32 ± 0.26 µM; in test [1] (h-TNAP, assay buffer pH 9.5, Table 1 and text, read-out: IC50 + SEM), 1.32 ± 0.26 µM; with HeLa cells (Homo sapiens, read-out: IC50 (cytotoxic potential, fluorescence microscopy with PI staining)), 28.3 µM. Besides, in test [1] (h-TNAP IC50 compared with levamisole), the “fold more potent than levamisole” value is listed as “about seventeen-fold”. In the test with HeLa cells (IC50 and 2 × IC50), the “morphological change of treated cells (DAPI staining)” value was “cellular shrinkage and nuclear condensation in a dose-dependent manner”.

The IC50 is the concentration that gives 50% inhibition.

The record behind these values is paper PMC9570995, “Design, Synthesis, and Biological Evaluation of Novel Dihydropyridine and Pyridine Analogs as Potent Human Tissue Nonspecific Alkaline Phosphatase Inhibitors with Anticancer Activity: ROS and DNA Damage-Induced Apoptosis” (Molecules, 2022).
